Test results from US20110015080A1, “Solution-based methods for RNA expression profiling” (MASSACHUSETTS INSTITUTE OF TECHNOLOGY, priority 2005, published 2011).
Values joined by “and” are separate entries in the source; they are usually repeats but may differ in a detail not shown here. Equal entries are not always repeated.

Test system: HL60 (human promyelocytic leukemia) cells
Assay: LMA-FlexMAP bead-based gene expression signature analysis of total RNA from HL60 cells treated with tretinoin or DMSO (ninety transcripts); as to FlexMap NM 003332 LUA#43: test concentration or dose not given here
Details: replicate columns
[1] = Experiment 2, HL60 cells, Tretinoin-treated

**Q.** What does the source list for CC1=C(/C=C/C(C)=C/C=C/C(C)=C/C(=O)O)C(C)(C)CCC1 [tretinoin, all-trans-retinoic acid]?
**A.** FlexMap NM_003132 LUA#68 (Experiment 2, Tretinoin): 635 and 618 and 721 and 690.5 and 680 and 633 and 648 and 716; FlexMap NM_003172 LUA#19 (Experiment 2, Tretinoin): 333 (2×) and 312.5 and 370 and 365 and 330 and 352 and 380; FlexMap NM_003332 LUA#43 (Experiment 2, Tretinoin): 2733 and 2691.5 and 2589.5 and 2832 and 2821 and 2704 and 2692 and 2772; FlexMap NM_003581 LUA#62 (Experiment 2, Tretinoin): 55 (2×) and 54 and 114 and 78 and 85 and 59.5 and 53; FlexMap NM_003644 LUA#17 (Experiment 2, Tretinoin): 274 (2×) and 259 and 319 and 269 and 192 and 231 and 300; FlexMap NM_003752 LUA#82 (Experiment 2, Tretinoin): 139 and 142 and 168 and 149.5 and 150 and 153 and 162 and 164; FlexMap NM_003879 LUA#24 (Experiment 2, Tretinoin): 95 and 96.5 and 93 and 91.5 and 86 and 84 and 82 and 97; FlexMap NM_004079 LUA#21 (Experiment 2, Tretinoin): 150 and 147 and 144 and 133 and 133.5 and 142 and 143 and 152; FlexMap NM_004095 LUA#59 (Experiment 2, Tretinoin): 293 (2×) and 227 and 287 and 286.5 and 270 and 294 and 331; FlexMap NM_004106 LUA#44 (Experiment 2, Tretinoin): 1697 and 1748 and 1762 and 1756 and 1799 and 1678 and 1587.5 and 1827; FlexMap NM_004134 LUA#76 (Experiment 2, Tretinoin): 406 and 372 and 423.5 and 417 and 415 (2×) and 383 and 426; FlexMap NM_004152 LUA#31 (Experiment 2, Tretinoin): 2347 and 1882 and 2313 and 2471.5 and 2477.5 and 2269 and 2335.5 and 2470; FlexMap NM_004526 LUA#88 (Experiment 2, Tretinoin): 256 and 233 and 244 and 270 and 260 and 240.5 and 243 and 277; FlexMap NM_004602 LUA#32 (Experiment 2, Tretinoin): 303 and 274 and 320 and 337 and 334 and 363 and 355.5 and 296; FlexMap NM_004723 LUA#20 (Experiment 2, Tretinoin): 501 and 420 and 472.5 and 498 and 506 and 470 and 487.5 and 538; FlexMap NM_004741 LUA#89 (Experiment 2, Tretinoin): 402.5 and 370.5 and 329 and 324 and 317 and 325 and 328; FlexMap NM_004759 LUA#37 (Experiment 2, Tretinoin): 206.5 and 235 and 284 and 179 and 207.5 and 192 and 195 and 201; FlexMap NM_005008 LUA#77 (Experiment 2, Tretinoin): 452.5 (2×) and 393 and 501 and 482 and 432 and 439.5 and 502.5; FlexMap NM_005375 LUA#86 (Experiment 2, Tretinoin): 565 and 642 and 552 and 568 and 593 and 585 and 589 and 587; FlexMap NM_005566 LUA#85 (Experiment 2, Tretinoin): 744 and 745 and 851 and 821 and 830 and 748 and 752 and 776.5; FlexMap NM_005914 LUA#60 (Experiment 2, Tretinoin): 1161.5 and 1104 and 871 and 1091 and 1131 and 1081.5 and 1125 and 1172.5; FlexMap NM_005915 LUA#72 (Experiment 2, Tretinoin): 47 (4×) and 43 and 44 and 49 and 54; FlexMap NM_005952 LUA#66 (Experiment 2, Tretinoin): 243 and 261.5 and 265 and 274 and 260 and 263 and 224 and 268; FlexMap NM_005980 LUA#73 (Experiment 2, Tretinoin): 202 and 190 and 197 and 212 and 204 and 187 and 188 and 209.5; FlexMap NM_006019 LUA#35 (Experiment 2, Tretinoin): 907 and 1033 and 1059 and 938.5 and 911.5 and 862 and 871 and 956; FlexMap NM_006138 LUA#56 (Experiment 2, Tretinoin): 124 and 117 and 115.5 and 111 and 127 and 118 and 119.5 and 120; FlexMap NM_006432 LUA#27 (Experiment 2, Tretinoin): 1693 and 1842 and 1767 and 1718 and 1798 and 1725 and 1678 and 1814; FlexMap NM_006452 LUA#71 (Experiment 2, Tretinoin): 86 (2×) and 83.5 and 93 and 90 (2×) and 88 and 96; FlexMap NM_006985 LUA#58 (Experiment 2, Tretinoin): 56 and 50 (2×) and 55 and 52 and 54 and 60 and 63; FlexMap NM_007282 LUA#16 (Experiment 2, Tretinoin): 58 and 53 and 61 (2×) and 69 and 64 and 59 and 62; FlexMap NM_014333 LUA#26 (Experiment 2, Tretinoin): 720 (2×) and 704 and 706 and 712 and 662 and 633.5 and 726.5; FlexMap NM_014366 LUA#61 (Experiment 2, Tretinoin): 298.5 and 321 and 304.5 and 297 and 291 and 286.5 and 300 and 310.5; FlexMap NM_014573 LUA#70 (Experiment 2, Tretinoin): 178 and 154 and 187 and 179 and 161.5 and 172 and 157.5 and 198; FlexMap NM_015201 LUA#57 (Experiment 2, Tretinoin): 241 and 245.5 and 266 and 252 and 243 and 230 and 244 and 268.5; FlexMap NM_018115 LUA#63 (Experiment 2, Tretinoin): 1238 and 1270 and 1440 and 1028 and 1210 and 935.5 and 1175 and 1004; FlexMap NM_018164 LUA#69 (Experiment 2, Tretinoin): 198 and 200 and 205.5 and 182 (2×) and 188.5 and 186 and 211; FlexMap NM_018256 LUA#83 (Experiment 2, Tretinoin): 568 and 635.5 and 455 and 571 and 556 and 643 and 655 and 483.5; FlexMap NM_018890 LUA#33 (Experiment 2, Tretinoin): 934 and 873 and 1071 and 983 and 992 and 923.5 and 879 and 988; FlexMap NM_019058 LUA#75 (Experiment 2, Tretinoin): 177.5 and 194 (2×) and 192 and 181.5 and 179 and 176 and 171; FlexMap NM_020117 LUA#78 (Experiment 2, Tretinoin): 697 and 734 (2×) and 750 and 739 and 606 and 654 and 748; FlexMap NM_021103 LUA#41 (Experiment 2, Tretinoin): 2724 and 2581.5 and 2331.5 and 2558 and 2559 and 793 and 1990 and 2996.5; FlexMap NM_021203 LUA#80 (Experiment 2, Tretinoin): 657.5 and 657 and 757.5 and 703 and 701.5 and 650 and 660 and 741; FlexMap NM_021974 LUA#64 (Experiment 2, Tretinoin): 1286.5 and 1160 and 1272 and 1368.5 and 1315 and 1193.5 and 1269 and 1365; FlexMap NM_024045 LUA#65 (Experiment 2, Tretinoin): 178 and 149 and 163.5 and 164.5 and 175.5 and 158 and 157 and 182; FlexMap TFRC LUA#92 (Experiment 2, Tretinoin): 346 and 400.5 and 413 and 375 and 381 and 358 and 345.5 and 382; FlexMap signal, transcript NM_000070 (LUA#2) [1]: 437.5 and 358 and 444 (2×) and 393 (2×) and 419 and 422; FlexMap signal, transcript NM_000153 (LUA#10) [1]: 487 and 484 and 539 and 511 and 505 and 473 and 501 and 542; FlexMap signal, transcript NM_000632 (LUA#12) [1]: 369.5 and 476 and 491.5 and 406 and 400 and 360.5 and 374 and 395
